Source: patent US20220363662A1, “COMPOUNDS AS LXR AGONISTS” (Integral Biosciences Privated Limited, priority 2021, published 2022)

Key:
HCT116 = assay: Cell viability assay (resazurin) in HCT116; assay type: cell-based; settings: Homo sapiens, HCT-116; 96 hr exposure
Procedure, shortened: (§1)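 Cells in 10% FBS medium (DMEM; MEM for U87MG) exposed 96 h at 37 °C to serially diluted compound, then 4 h with resazurin (1 mM in medium). Fluorescence (ex 535/em 590 nm) background-subtracted, normalised to DMSO; IC50 by four-parameter variable-slope fit.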

LXR alpha = molecular target: T1, LXR alpha (Homo sapiens, UniProt Q13133); assay: LXR alpha agonist assay (Lanthascreen TR-FRET); assay type: biochemical; settings: LXR alpha-LBD 2.5 nM, read-out: LXR-α EC50
T1 construct: 5 μL of 4×LXR alpha-LBD was added to each well (final concentration 2.5 nM); purchased Thermofisher PV4655
T1 sequence (Q13133 209-447 limits assumed): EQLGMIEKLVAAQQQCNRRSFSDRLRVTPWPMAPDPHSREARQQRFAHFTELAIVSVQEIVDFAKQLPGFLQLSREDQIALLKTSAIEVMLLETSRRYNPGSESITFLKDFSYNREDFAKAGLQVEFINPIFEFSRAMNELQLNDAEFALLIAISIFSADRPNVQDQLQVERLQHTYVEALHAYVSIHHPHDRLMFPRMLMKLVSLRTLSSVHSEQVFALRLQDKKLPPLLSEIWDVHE
Method: EC50 values of compounds against LXR alpha were determined at Integral BioSciences (India) using Lanthascreen TR-FRET (Thermofisher, Cat #PV4655). Assay was performed in a 20 μL final volume in a Black 384-well plate (Corning, Cat #4511). Dose response curve for the compounds were prepared in duplicates with starting concentration at 30 μM and a three-fold titration was performed. The reaction buffer consisted of TR-FRET Coregulator Buffer H. To the compound dilution, 5 μL of 4×LXR alpha-LBD was added to each well (final concentration 2.5 nM). An equal volume (5 μL) containing 4×Fl-D22/Tb-anti GST antibody (final concentration 250 nM/10 nM) was added to initiate the enzyme reaction and the reaction was incubated for 60 min at 22° C. after which the plates were read using BioTek Plate reader for TR-FRET every hour up to 4 hours.
Analysis was done using the standard curve by non-linear regression, variable slope inhibitor curve fits (Graph-Pad Prism) and EC50's of compounds were determined wherever possible.

ApoE = assay: THP-1 Western blotting assay (ApoE); assay type: cell-based; settings: 30 μM
Method: THP-1 cells (2×10^6 cells/well) were differentiated with PMA (10 ng/mL) for 24 following which the cells were treated with different concentrations (30 μM and 10 μM) of compound for 18 hour in cell culture conditions (5% CO2, 37° C.). The cells were lysed using 1×RIPA (Cat #9806; Cell Signaling Technologies) buffer with Protease inhibitor (1×) (Cat #P830, Sigma) and sonicated. Whole cell lysate was collected and protein estimation was done using Bradford Reagent. The samples were subjected to SDS PAGE Electrophoresis and the protein bands were transferred onto PVDF membrane using wet transfer. The membrane was further blocked with 5% non-fat dry milk and incubated with primary antibody (ApoE; 1:1000, Cat #D7I9N, ABCA1; 1:1000, Cat #96292S; Cell Signaling Technologies) and secondary antibody (Anti rabbit IgG 1:2000, Cat #7074S, Cell Signaling Technologies). The membrane was then developed using ECL reagent (Ref. 32106, Thermo Fisher Scientific) in a gel doc system. The expression of protein was quantified by densitometry analysis.

THP1 = assay: Cell viability assay in THP1; assay type: cell-based; settings: Homo sapiens, THP-1
A549 = assay: Cell viability assay (resazurin) in A549; assay type: cell-based; settings: Homo sapiens, 96 hr exposure
Procedure, shortened: as §1

LXR beta = molecular target: T2, LXR beta (Homo sapiens, UniProt P55055); assay: LXR beta agonist assay (Lanthascreen TR-FRET); assay type: biochemical; settings: LXR beta-LBD 5 nM, read-out: LXR-β EC50
T2 construct: 5 μL of 4×LXR beta-LBD was added to each well (final concentration 5 nM); purchased Thermofisher PV4658
T2 sequence (P55055 222-460 limits assumed): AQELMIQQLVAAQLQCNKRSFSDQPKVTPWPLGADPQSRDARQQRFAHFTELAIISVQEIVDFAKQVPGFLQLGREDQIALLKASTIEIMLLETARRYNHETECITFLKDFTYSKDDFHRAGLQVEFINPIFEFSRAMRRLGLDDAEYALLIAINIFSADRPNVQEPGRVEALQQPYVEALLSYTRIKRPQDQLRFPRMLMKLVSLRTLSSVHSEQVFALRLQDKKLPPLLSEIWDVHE
Procedure, shortened: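 TR-FRET coactivator recruitment: 5 nM LXR beta-LBD with 100 nM Fl-D22 peptide and 10 nM Tb-anti-GST antibody (final) in Coregulator Buffer G, 60 min at 22° C, read hourly up to 4 hours. Duplicate three-fold titrations from 30 μM; EC50 by variable-slope nonlinear regression.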

MDA-MB-231 = assay: Cell viability assay (resazurin) in MDA-MB-231; assay type: cell-based; settings: Homo sapiens, 96 hr exposure, read-out: MDA_MB-231 Cell IC50
Procedure, shortened: as §1

MiaPaCa-2 = assay: Cell viability assay (resazurin) in MiaPaCa-2; assay type: cell-based; settings: Homo sapiens, MIA PaCa-2; 96 hr exposure
Method: (§2) HepG2 (ATCC® HB-8065™), hepatocellular carcinoma, A549 (ATCC® CCL-185™), lung epithelial carcinoma, MCF7 (ATCC® HTB-22™), mammary gland epithelial carcinoma, MDA-MB-231 (ATCC® HTB-26™), TNBC, MiaPaCa-2 (ATCC® CRL-1420™) & Panc-1 (ATCC® CRL-1469™), pancreatic epithelial carcinoma, HCT116 (ATCC® CCL-247™), colon epithelial carcinoma and U87MG (ATCC® HTB-14™), brain epithelial carcinoma cell lines respectively were seeded in the respective medium (DMEM, Cat #10569044 with 10% FBS, Cat #16000044; Gibco for HepG2, A549, MCF7, MDA-MB-231, MiaPaCa-2, Panc-1, HCT116 and MEM, Cat #11095080 with 10% FBS for U87MG). Cells were allowed to grow at 37° C. for 24 hr in 5% CO2 (culture conditions) in a Nuaire incubator (humidified). Serially diluted compounds (100 μl) were added to the culture plate 24 hr later and the cultures were further incubated in culture conditions for 96 hr. […] Fluorescence was then measured using a multimodal plate reader (Biotek Synergy Neo) at an excitation wavelength of 535 nm and emission wavelength of 590 nm to obtain relative fluorescence units. Data analysis was done by subtracting the background fluorescence (only medium blank) value from each reading and then normalizing with the vehicle control (DMSO treated cells) to obtain percent survival/proliferation. […]

HepG2 = assay: Cell viability assay (resazurin) in HepG2; assay type: cell-based; settings: Homo sapiens, 96 hr exposure
Procedure, shortened: as §1

MCF7 = assay: Cell viability assay (resazurin) in MCF7; assay type: cell-based; settings: Homo sapiens, 96 hr exposure
Method: HepG2 (ATCC® HB-8065™), hepatocellular carcinoma, A549 (ATCC® CCL-185™), lung epithelial carcinoma, MCF7 (ATCC® HTB-22™), mammary gland epithelial carcinoma, MDA-MB-231 (ATCC® HTB-26™), TNBC, MiaPaCa-2 (ATCC® CRL-1420™) & Panc-1 (ATCC® CRL-1469™), pancreatic epithelial carcinoma, HCT116 (ATCC® CCL-247™), colon epithelial carcinoma and U87MG (ATCC® HTB-14™), brain epithelial carcinoma cell lines respectively were seeded in the respective medium (DMEM, Cat #10569044 with 10% FBS, Cat #16000044; Gibco for HepG2, A549, MCF7, MDA-MB-231, MiaPaCa-2, Panc-1, HCT116 and MEM, Cat #11095080 with 10% FBS for U87MG). Cells were allowed to grow at 37° C. for 24 hr in 5% CO2 (culture conditions) in a Nuaire incubator (humidified). Serially diluted compounds (100 μl) were added to the culture plate 24 hr later and the cultures were further incubated in culture conditions for 96 hr. Experiment was terminated at the completion of 96 hr exposure to the drug by replacing the medium with 100 μl of 1 mM of resazurin (R7017; Sigma) prepared in culture medium and the plates were further incubated in culture conditions for 4 hr. Fluorescence was then measured using a multimodal plate reader (Biotek Synergy Neo) at an excitation wavelength of 535 nm and emission wavelength of 590 nm to obtain relative fluorescence units. Data analysis was done by subtracting the background fluorescence (only medium blank) value from each reading and then normalizing with the vehicle control (DMSO treated cells) to obtain percent survival/proliferation. Percent survival at different doses was used to calculate IC50 by fitting the curve to the “four-parameter variable slope logistic model” using Prism Graph Pad.

U87MG = assay: Cell viability assay (resazurin) in U87MG; assay type: cell-based; settings: Homo sapiens, U-87 MG; 96 hr exposure
Method: as §2

mouse splenocytes [1] = assay: Mouse splenocytes cytotoxicity assay (CTG); assay type: cell-based; settings: Splenocyte, CD3e/CD28 activated Balb/c splenocytes, 72 hr
Method: IC50 values to look at cytotoxicity of compounds on CD3e/CD28 induced splenocytes, was determined in mouse splenocytes isolated from Balb/c mice. Mouse splenocytes (2.5×10^5 cells/well/160 μl) were activated with Anti-mouse CD3e (0.5 μg/mL, coated overnight at 4° C.; Cat #14-0032-82, eBiosciences) and then incubated with serial dilutions of compounds (3 fold, 8 point dose response starting at 30 μM) and treated with Anti-mouse CD28 (1 μg/mL soluble; Cat #16-0289-81, eBiosciences). Splenocytes were further incubated under cell culture conditions for 72 hr after which assay was terminated by addition of CTG. Plate was incubated for 15 min at 37° C., 5% CO2 and luminescence was measured.

mouse splenocytes [2] = assay: Mouse splenocyte assay, cytokine release (mIFN-γ ELISA); assay type: cell-based; settings: Balb/c splenocytes, CD3e/CD28 and PMA+Ionomycin induced, read-out: Enhancement of mIFN-γ release by activated Mouse Splenocyte, EC50
Method: EC50 values of compounds for enhancement of CD3e/CD28 induced mIFNγ release in mouse splenocytes isolated from Balb/c mice and differentiated (Treg) with PMA+Ionomycin. Mouse splenocytes (2*10^5 cells/well) were activated with Anti-mouse CD3e (0.5 μg/mL, coated overnight at 4° C.; Cat #14-0032-82, eBioscience) and then incubated with Anti-mouse CD28 (1 μg/mL soluble; Cat #16-0289-81, eBiosciences). After 48 hr of incubation serial dilutions of compounds (3 fold, 8 point dose response starting at 1 μM) were left for 6-8 hrs at cell culture conditions and then splenocytes were further incubated with PMA (50 ng/mL final concentration) and 1 μg/mL of Ionomycin (final concentration) and incubated under cell culture conditions overnight after which the supernatant was harvested, diluted to 1:50 and ELISA was performed as per the manufacturer's protocol (mIFN-γ kit; Cat #555138 & 550534, BD Biosciences). Plates were read in Biotek plate reader by measuring absorbance at 450 nm.

Compound: CC(C)[C@](O)(C(=O)N1CCC(N2CC(Nc3ccc(C(=O)N(C)C)c(Cl)c3)C2)CC1)C(F)(F)F (single isomer, unassigned) [Compound 1.45]
- IC50 (HCT116): > 30 µM
- EC50 (LXR alpha): > 30 µM
- ApoE normalized with Vehicle treated (DMSO) Control (ApoE; 18 hour, PMA-differentiated THP-1 cells, densitometry, control = 100): 132.1
- Fold Difference (ApoE; ApoE vs DMSO control, THP-1 cells): 1.32
- IC50 (THP1): > 30 µM
- IC50 (A549): > 30 µM
- EC50 (LXR beta): 1.21 µM
- IC50 (MDA-MB-231): > 30 µM

Compound: CN(C)C(=O)c1ccc(NC2CN(C3CCN(C(=O)C(O)(c4ccccc4)C(F)(F)F)CC3)C2)cc1Cl (centres unmarked) [Compound 1.3, 2-chloro-N,N-dimethyl-4-(1-(1-(3,3,3-trifluoro-2-hydroxy-2-phenylpropanoyl)piperidin-4-yl)azetidin-3-ylamino)benzamide]
- IC50 (MiaPaCa-2): > 30 µM
- IC50 (HepG2): 13.8 µM
- IC50 (MCF7): > 25.7 µM
- IC50 (A549): > 30 µM
- EC50 (LXR beta): 1.12 µM
- IC50 (MDA-MB-231): > 30 µM
- IC50 (U87MG): > 30 µM

Compound: CN(C)C(=O)c1ccc(N2CCN(C3CC4(C3)CN(C(=O)C(O)(c3ccccc3)C(F)(F)F)C4)CC2)cc1Cl (centres unmarked) [Compound 1.4, 2-chloro-N,N-dimethyl-4-(4-(2-(3,3,3-trifluoro-2-hydroxy-2-phenylpropanoyl)-2-azaspiro[3.3]heptan-6-yl)piperazin-1-yl)benzamide]
- IC50 (MiaPaCa-2): > 30 µM
- IC50 (HepG2): > 30 µM
- IC50 (MCF7): > 30 µM
- IC50 (A549): > 30 µM
- EC50 (LXR beta): 0.45 µM
- IC50 (MDA-MB-231): > 30 µM
- IC50 (U87MG): > 30 µM

Compound: O=c1[nH]ccc2cc(N3CCC(C4CCN(S(=O)(=O)c5ccccc5C(F)(F)F)CC4)CC3)cc(Cl)c12 [Compound 1.14, 8-chloro-6-(1′-(2-(trifluoromethyl)phenylsulfonyl)-4,4′-bipiperidin-1-yl)isoquinolin-1(2H)-one]
- IC50 (mouse splenocytes [1]): 22.9 µM
- EC50 (LXR beta): 2.51 µM
- EC50 (mouse splenocytes [2]): 0.05 µM

Compound: O=c1[nH]ccc2cc(N3CCC(C4CCN(S(=O)(=O)c5ccccc5Cl)CC4)CC3)cc(Cl)c12 [Compound 1.16, 8-chloro-6-(1′-((2-chlorophenyl)sulfonyl)-[4,4′-bipiperidin]-1-yl)isoquinolin-1(2H)-one]
- IC50 (mouse splenocytes [1]): 14.9 µM

Compound: CC(C)(C(=O)N1CCC(N2CCN(c3cc(Cl)c4c(=O)[nH]ccc4c3)CC2)CC1)C(F)(F)F [Compound 1.21, 8-chloro-6-(4-(1-(3,3,3-trifluoro-2,2-dimethylpropanoyl)piperidin-4-yl)piperazin-1-yl)isoquinolin-1(2H)-one]
- IC50 (mouse splenocytes [1]): > 30 µM
- EC50 (mouse splenocytes [2]): 0.111 µM

Compound: CC(C)(C(=O)N1CCC(C2CCN(c3cc(Cl)c4c(=O)[nH]ccc4c3)CC2)CC1)C(F)(F)F [Compound 1.23, 8-chloro-6-(1′-(3,3,3-trifluoro-2,2-dimethylpropanoyl)-4,4′-bipiperidin-1-yl)isoquinolin-1(2H)-one]
- IC50 (mouse splenocytes [1]): 1.5 µM
